Experimental data: US11718626B2, “Macrocyclic compounds for treatment of medical disorders” (Achillion Pharmaceuticals, Inc., priority 2017, dated 2023)
Where “and” joins values, the source holds several entries; their conditions need not be identical. Equal entries are not always repeated. Where two headings read alike, the source gives them in different places.

What was measured:
[1] = rcm bond, toluene, 80.0 °C
[2] = rcm bond, Grubbs II, toluene, 80.0 °C

`CC(C)(C)OC(=O)N1[C@H]2C[C@@]3(CNC(=O)C(C)(C)CC=CCOCc4ccc(Br)nc4NC2=O)C[C@@H]13` showed a ring closure, isolated yield ([1]; from C=CCOCc1ccc(Br)nc1NC(=O)[C@@H]1C[C@@]2(CNC(=O)C(C)(C)CC=C)C[C@H]2N1C(=O)OC(C)(C)C, 17-membered ring, Grubbs II, 3.14 mM, 16.0 h) of 83.1%.
Work on `CC(=O)c1nn2c3c(cc(-c4cnc(C)nc4)cc13)CCCCCCC=Cc1cn(nn1)C[C@@]13C[C@@H](C(=O)Nc4nc(Br)ccc4C)N(C(=O)C2)[C@@H]1C3` yielded a ring closure, isolated yield ([1]; from C=CCCCCCCc1cc(-c2cnc(C)nc2)cc2c(C(C)=O)nn(CC(=O)N3[C@H](C(=O)Nc4nc(Br)ccc4C)C[C@@]4(Cn5cc(C=C)nn5)C[C@@H]34)c12, 20-membered ring, Grubbs II, 2.6 mM, 16.0 h) of 59.4%, a ring closure, yield after HPLC ([2]; from C=CCCCCCCc1cc(-c2cnc(C)nc2)cc2c(C(C)=O)nn(CC(=O)N3[C@H](C(=O)Nc4nc(Br)ccc4C)C[C@@]4(Cn5cc(C=C)nn5)C[C@@H]34)c12, 20-membered ring, 2.6 mM, 16.0 h) of 3.97% and a ring closure, yield after HPLC ([2]; from C=CCCCCCCc1cc(-c2cnc(C)nc2)cc2c(C(C)=O)nn(CC(=O)N3[C@H](C(=O)Nc4nc(Br)ccc4C)C[C@@]4(Cn5cc(C=C)nn5)C[C@@H]34)c12, 2.6 mM, 16.0 h) of 6.93%.
With `CC(=O)c1nn2c3c(nc(-c4cnc(C)nc4)cc13)CC=CCCCC(=O)NC[C@@]13C[C@@H](C(=O)Nc4nc(C(F)(F)F)ccc4C)N(C(=O)C2)[C@@H]1C3` the ring closure, yield after HPLC ([2]; from C=CCCCC(=O)NC[C@@]12C[C@@H](C(=O)Nc3nc(C(F)(F)F)ccc3C)N(C(=O)Cn3nc(C(C)=O)c4cc(-c5cnc(C)nc5)nc(CC=C)c43)[C@@H]1C2, 17-membered ring, 1.4 mM) was 26.9%.
With “(41R,43S,45S,E)-13-Acetyl-N-(6-bromo-3-methylpyridin-2-yl)-3,14-dioxo-11H-6,15-dioxa-42,13-diaza-1(1,6)-indazola-4(2,5)-bicyclo[3.1.0]hexanacyclopentadecaphan-8-ene-43-carboxamide” the ring closure, isolated yield ([1]; 20-membered ring, Grubbs II, 1.48 mM) was 4.1%.
In the case of `Cc1ncc(-c2cc3c(C#N)nn4c3c(n2)CC=CCCCC(=O)NC[C@@]23C[C@@H](C(=O)Nc5nc(Br)ccc5C)N(C(=O)C4)[C@@H]2C3)cn1`, the ring closure, isolated yield ([1]; from C=CCCCC(=O)NC[C@@]12C[C@@H](C(=O)Nc3nc(Br)ccc3C)N(C(=O)Cn3nc(C#N)c4cc(-c5cnc(C)nc5)nc(CC=C)c43)[C@@H]1C2, 17-membered ring, Grubbs II, 1.27 mM, 16.0 h) is reported as 44.8%.
In the case of `CC(=O)c1nn2c3c(cc(-c4cnc(C)nc4)cc13)CC=CCCCC(=O)N(C)C[C@@]13C[C@@H](C(=O)Nc4ccc(C)c(C(F)(F)F)n4)N(C(=O)C2)[C@@H]1C3`, the ring closure, isolated yield ([1]; from C=CCCCC(=O)N(C)C[C@@]12C[C@@H](C(=O)Nc3ccc(C)c(C(F)(F)F)n3)N(C(=O)Cn3nc(C(C)=O)c4cc(-c5cnc(C)nc5)cc(CC=C)c43)[C@@H]1C2, 17-membered ring, Grubbs II, 1.24 mM) is reported as 70.6%.
For `CC(=O)c1nn2c3c(cc(-c4cnc(C)nc4)cc13)CCCCC=CCC=C[C@@]13C[C@@H](C(=O)Nc4nc(Br)ccc4C)N(C(=O)C2)[C@@H]1C3`, the ring closure, isolated yield ([1]; from C=CCC=C[C@@]12C[C@@H](C(=O)Nc3nc(Br)ccc3C)N(C(=O)Cn3nc(C(C)=O)c4cc(-c5cnc(C)nc5)cc(CCCCC=C)c43)[C@@H]1C2, 17-membered ring, Grubbs II, 2.27 mM, 16.0 h) was 21.8%.
Molecule `CC(=O)c1nn2c3cc(ccc13)NC(=O)OCCCCC=CCOC[C@@]13C[C@@H](C(=O)Nc4nc(Br)ccc4C)N(C(=O)C2)[C@@H]1C3` has a ring closure, isolated yield ([1]; from C=CCCCCOC(=O)Nc1ccc2c(C(C)=O)nn(CC(=O)N3[C@H](C(=O)Nc4nc(Br)ccc4C)C[C@@]4(COCC=C)C[C@@H]34)c2c1, 21-membered ring, Grubbs II, 1.7 mM, 16.0 h) of 51.2%.
For `CC(C)(C)OC(=O)N1[C@H]2C[C@@]3(CCCC=CCOCc4ccc(Br)nc4NC2=O)C[C@@H]13`, the ring closure, isolated yield ([1]; from C=CCCC[C@@]12C[C@@H](C(=O)Nc3nc(Br)ccc3COCC=C)N(C(=O)OC(C)(C)C)[C@@H]1C2, 15-membered ring, Grubbs II, 1.87 mM) was 70.4%.
Work on `CC(=O)c1nn2c3cc(ccc13)NC(=O)NCCCC=CCOC[C@@]13C[C@@H](C(=O)Nc4nc(Br)ccc4C)N(C(=O)C2)[C@@H]1C3` yielded a ring closure, yield after HPLC ([2]; from C=CCCCNC(=O)Nc1ccc2c(C(C)=O)nn(CC(=O)N3[C@H](C(=O)Nc4nc(Br)ccc4C)C[C@@]4(COCC=C)C[C@@H]34)c2c1, 20-membered ring, 1.6 mM, 16.0 h) of 2.1%.
For “tert-Butyl (41R,43S,45R,E)-16-Bromo-8,8-difluoro-3,7-dioxo-13-oxa-42,2,6-triaza-1(2,3)-pyridina-4(3,5)-bicyclo[3.1.0]hexanacyclotetradecaphan-10-ene-42-carboxylate”, the ring closure, isolated yield ([1]; 17-membered ring, Grubbs II, 2.0 mM) was 96.5%.
`CC(=O)c1nn2c3c(cc(-c4cnc(C)nc4)cc13)CCCCCCC=CCOC[C@@]13C[C@@H](C(=O)Nc4nc(Br)ccc4C)N(C(=O)C2)[C@@H]1C3` showed a ring closure, isolated yield ([1]; from C=CCCCCCCc1cc(-c2cnc(C)nc2)cc2c(C(C)=O)nn(CC(=O)N3[C@H](C(=O)Nc4nc(Br)ccc4C)C[C@@]4(COCC=C)C[C@@H]34)c12, 19-membered ring, Grubbs II, 3.0 mM, 4.0 h) of 88.7%.
In the case of `CC(=O)c1nn2c3cc(ccc13)NC(=O)OCCCC=CCOC[C@@]13C[C@@H](C(=O)Nc4nc(Br)ccc4C)N(C(=O)C2)[C@@H]1C3`, the ring closure, yield after HPLC ([2]; from C=CCCCOC(=O)Nc1ccc2c(C(C)=O)nn(CC(=O)N3[C@H](C(=O)Nc4nc(Br)ccc4C)C[C@@]4(COCC=C)C[C@@H]34)c2c1, 20-membered ring, 2.0 mM, 2.0 h) is reported as 68.5%.
For `CC(=O)c1nn2c3c(cc(-c4cnc(C)nc4)cc13)CCC=CCCCC(=O)NC[C@@]13C[C@@H](C(=O)Nc4nc(Br)ccc4C)N(C(=O)C2)[C@@H]1C3`, the ring closure, yield after HPLC ([2]; from C=CCCCC(=O)NC[C@@]12C[C@@H](C(=O)Nc3nc(Br)ccc3C)N(C(=O)Cn3nc(C(C)=O)c4cc(-c5cnc(C)nc5)cc(CCC=C)c43)[C@@H]1C2, 17-membered ring, 7.0 mM, 2.5 h) was 15.8% and the ring closure, yield after HPLC ([2]; from C=CCCCC(=O)NC[C@@]12C[C@@H](C(=O)Nc3nc(Br)ccc3C)N(C(=O)Cn3nc(C(C)=O)c4cc(-c5cnc(C)nc5)cc(CCC=C)c43)[C@@H]1C2, 18-membered ring, 7.0 mM, 2.5 h) was 11.6%.
With `CC(=O)c1nn2c3cc(c(-c4cnc(C)nc4)cc13)OCCCCC=CCOC[C@@]13C[C@@H](C(=O)Nc4nc(Br)ccc4C)N(C(=O)C2)[C@@H]1C3` the ring closure, yield after HPLC ([2]; from C=CCCCCOc1cc2c(cc1-c1cnc(C)nc1)c(C(C)=O)nn2CC(=O)N1[C@H](C(=O)Nc2nc(Br)ccc2C)C[C@@]2(COCC=C)C[C@@H]12, 18-membered ring, 1.32 mM, 16.0 h) was 10.6% and 7.07%.
`CC(=O)c1nn2c3c(cc(-c4cnc(C)nc4)cc13)CCCCC=CCc1cccc(c1)COC[C@@]13C[C@@H](C(=O)Nc4nc(Br)ccc4C)N(C(=O)C2)[C@@H]1C3` gave a ring closure, isolated yield ([1]; from C=CCCCCc1cc(-c2cnc(C)nc2)cc2c(C(C)=O)nn(CC(=O)N3[C@H](C(=O)Nc4nc(Br)ccc4C)C[C@@]4(COCc5cccc(CC=C)c5)C[C@@H]34)c12, 21-membered ring, Grubbs II, 1.83 mM, 16.0 h) of 40.9%.
For `CC(=O)c1nn2c3c(cc(-c4cnc(C)nc4)cc13)C=CCCCCCN(C)C[C@@]13C[C@@H](C(=O)Nc4nc(Br)ccc4C)N(C(=O)C2)[C@@H]1C3`, the ring closure, isolated yield ([1]; from C=CCCCCCN(C)C[C@@]12C[C@@H](C(=O)Nc3nc(Br)ccc3C)N(C(=O)Cn3nc(C(C)=O)c4cc(-c5cnc(C)nc5)cc(C=C)c43)[C@@H]1C2, 17-membered ring, Zhan-1B, 4.38 mM) was 47.4%.
Work on `CC(C)(C)OC(=O)N1[C@H]2C[C@@]3(Cc4nc(no4)C=CCOCc4ccc(Br)nc4NC2=O)C[C@@H]13` yielded a ring closure, isolated yield ([1]; from C=CCOCc1ccc(Br)nc1NC(=O)[C@@H]1C[C@@]2(Cc3nc(C=C)no3)C[C@H]2N1C(=O)OC(C)(C)C, 16-membered ring, Zhan-1B, 1.75 mM, 16.0 h) of 56.2%.
With “tert-Butyl (42S,44R,E)-16-Bromo-44-fluoro-3-oxo-6-oxa-2-aza-1(2,3)-pyridina-4(2,4)-pyrrolidinacyclotridecaphan-12-ene-41-carboxylate” the ring closure, isolated yield ([1]; 16-membered ring, Grubbs II, 1.83 mM) was 59.3%.
In the case of `CN1CCCCC=CCc2ccc(Br)nc2NC(=O)[C@@H]2C[C@]3(C[C@H]3N2C(=O)OC(C)(C)C)C1`, the ring closure, isolated yield ([1]; from C=CCCCCN(C)C[C@@]12C[C@@H](C(=O)Nc3nc(Br)ccc3CC=C)N(C(=O)OC(C)(C)C)[C@@H]1C2, 16-membered ring, Grubbs II, 1.83 mM) is reported as 93.5%.
`CC(=O)c1nn2c3cc(ccc13)C(=O)NCCCCC=CCOC[C@@]13C[C@@H](C(=O)Nc4nc(Br)ccc4C)N(C(=O)C2)[C@@H]1C3` showed a ring closure, isolated yield ([1]; from C=CCCCCNC(=O)c1ccc2c(C(C)=O)nn(CC(=O)N3[C@H](C(=O)Nc4nc(Br)ccc4C)C[C@@]4(COCC=C)C[C@@H]34)c2c1, 20-membered ring, Grubbs II, 1.44 mM, 16.0 h) of 45.6%.
For `CC(=O)c1nn2c3c(cc(-c4cnc(C)nc4)cc13)CCCCC=CCc1cccc(n1)OC[C@@]13C[C@@H](C(=O)Nc4nc(Br)ccc4C)N(C(=O)C2)[C@@H]1C3`, the ring closure, yield after HPLC ([2]; from C=CCCCCc1cc(-c2cnc(C)nc2)cc2c(C(C)=O)nn(CC(=O)N3[C@H](C(=O)Nc4nc(Br)ccc4C)C[C@@]4(COc5cccc(CC=C)n5)C[C@@H]34)c12, 1.6 mM, 16.0 h) was 78.1%.
With `CN1CCCCCC=C[C@@]23C[C@@H](C(=O)Nc4nc(Br)ccc4C1)N(C(=O)OC(C)(C)C)[C@@H]2C3` the ring closure, isolated yield ([1]; from C=CCCCCCN(C)Cc1ccc(Br)nc1NC(=O)[C@@H]1C[C@@]2(C=C)C[C@H]2N1C(=O)OC(C)(C)C, 16-membered ring, Grubbs II, 1.78 mM, 16.0 h) was 72.4%.
Molecule `CC(C)(C)OC(=O)N1[C@H]2C[C@@]3(CNC(=O)C(F)(F)CC=CCOCc4ccc(Br)nc4NC2=O)C[C@@H]13` has a ring closure, isolated yield ([1]; from C=CCOCc1ccc(Br)nc1NC(=O)[C@@H]1C[C@@]2(CNC(=O)C(F)(F)CC=C)C[C@H]2N1C(=O)OC(C)(C)C, 17-membered ring, Grubbs II, 2.0 mM) of 96.5%.
